From BindingDB's records for doi:10.7270/Q2V986KM (Burnham Center For Chemical Genomics, 2011)

Biological target: T1, Carboxy-terminal domain RNA polymerase II polypeptide A small phosphatase 1 (Homo sapiens, UniProt Q9GZU7)
T1 sequence (Q9GZU7 whole entry): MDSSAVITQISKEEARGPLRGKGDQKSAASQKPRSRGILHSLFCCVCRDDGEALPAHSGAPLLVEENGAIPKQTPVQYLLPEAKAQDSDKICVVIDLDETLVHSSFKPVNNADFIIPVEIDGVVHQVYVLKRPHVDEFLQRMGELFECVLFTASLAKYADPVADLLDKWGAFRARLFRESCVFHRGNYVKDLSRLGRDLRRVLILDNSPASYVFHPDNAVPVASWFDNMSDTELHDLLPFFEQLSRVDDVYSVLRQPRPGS
Assay: CTDSP1 inhibitors, concentration-response, biochemical, absorbance-based, ultra-high-throughput screen actives (AID 540297)

SMILES	IC50
Cc1ccc(C(=O)N[n+]2cc(O)[c-](-c3nc(-c4cccc([N+](=O)[O-])c4)cs3)c2N)cc1 [MLS000391743]	4.06 µM
Cc1cccc(C(=O)/N=c2\c(C#N)cc3c(=O)n4cccc(C)c4nc3n2Cc2ccco2)c1 [N-[3-cyano-1-(furan-2-ylmethyl)-10-methyl-5-oxodipyrido[3,4-c:1',2'-f]pyrimidin-2-ylidene]-3-methylbenzamide]	5.58 µM
O=C(NN=C/C=C/c1ccc(Br)cc1)c1ccc2c(c1)OCO2 [Benzo[1,3]dioxole-5-carboxylic acid [3-(4-bromo-phenyl)-allylidene]-hydrazide]	4.92 µM
O=NCc1cccn1-c1cccc(C(=O)O)c1 [3-[2-(hydroximinomethyl)pyrrol-1-yl]benzoic acid]	3.09 µM
CCN(CC)P(=O)(NC(=O)C(Cl)(Cl)Cl)N(CC)CC [MLS000564159]	2.49 µM
COc1cc(CN=Nc2nc(O)c(CC(=O)O)s2)ccc1OCc1ccc(Cl)cc1 [2-[2-[2-[[4-[(4-chlorophenyl)methoxy]-3-methoxy-phenyl]methylidene]hydrazinyl]-4-oxidanylidene-1,3-thiazol-5-yl]ethanoic acid]	12.4 µM
CC(N=Nc1ccc(Cl)c(C(=O)O)c1)c1ccc[nH]1 (stereo not given) [2-chloro-5-[2-[(1Z)-1-pyrrol-2-ylideneethyl]hydrazinyl]benzoic acid]	4.28 µM
O=C(O)Cc1sc(N=NCc2ccccc2)nc1-c1ccccc1	5.14 µM
Cc1ccc(-n2[nH]c(C)c(CN=Nc3ccc([N+](=O)[O-])cc3[N+](=O)[O-])c2=O)cc1 [SMR000171521]	6.07 µM
Cc1ccc(-c2csc(-c3c(O)cn(NC(=O)c4ccco4)c3N)n2)cc1 [SMR000363171]	12.9 µM
CCOc1cc(CN=Nc2nc(O)c(CC(=O)O)s2)ccc1OCc1ccc(Cl)cc1 [2-[2-[2-[[4-[(4-chlorophenyl)methoxy]-3-ethoxy-phenyl]methylidene]hydrazinyl]-4-oxidanylidene-1,3-thiazol-5-yl]ethanoic acid]	7.12 µM
CCOC(=O)C1C(COC(=O)C=Cc2ccco2)=NC(=O)NC1C (stereo not given)	4.25 µM
Cc1ccc(-n2[nH]c(C)c(CN=Nc3ccc([N+](=O)[O-])cc3[N+](=O)[O-])c2=O)cc1C [(4E)-2-(3,4-dimethylphenyl)-4-[[(2,4-dinitrophenyl)hydrazo]methylidene]-5-methyl-3-pyrazolone]	3.32 µM
CCOc1ccccc1C(=O)c1cc(O)c2ccccc2c1O [2-[(2-ethoxyphenyl)-oxidanyl-methyl]naphthalene-1,4-dione]	4.16 µM
O=c1c(Cl)c(N=NCc2ccc(Br)cc2)cnn1-c1ccccc1	> 80 µM
O=[N+]([O-])c1cccc(-c2csc(N=NCc3cccc(O)c3)n2)c1 [3-[[[4-(3-nitrophenyl)-1,3-thiazol-2-yl]hydrazinylidene]methyl]phenol]	10.8 µM
O=C(NN=C/C=C\c1ccco1)c1ccccn1 [Pyridine-2-carboxylic acid [(Z)-3-furan-2-yl-prop-2-en-(E)-ylidene]-hydrazide]	14.5 µM
CC(=O)C(C[N+]1(C)CCCCC1)N=O (stereo not given)	3.4 µM
CCOc1cc(CN=Nc2nc(O)c(CC(=O)O)s2)ccc1OCc1ccc(Cl)cc1Cl [2-[2-[(N''E)-N''-[4-(2,4-dichlorobenzyl)oxy-3-ethoxy-benzylidene]hydrazino]-4-keto-2-thiazolin-5-yl]acetic acid]	2.32 µM
O=C(CCCC(=O)Nc1cccc(Br)c1)N/N=C/C1C=C([N+](=O)[O-])C=CC1=O (stereo not given)	6.26 µM
COc1ccc(CN=Nc2nc(O)c(CC(=O)O)s2)cc1OCc1ccc(Cl)cc1Cl [[2-({3-[(2,4-dichlorobenzyl)oxy]-4-methoxybenzylidene}hydrazono)-4-oxo-1,3-thiazolidin-5-yl]acetic acid]	4.48 µM
CC(=NNC(=O)c1cc(-c2cccc([N+](=O)[O-])c2)n[nH]1)C1C=CC=CC1=O (stereo not given) [3-(3-nitrophenyl)-N'-[(1E)-1-(6-oxo-1-cyclohexa-2,4-dienylidene)ethyl]-1H-pyrazole-5-carbohydrazide]	1.7 µM
O=C(O)CNC(=O)Cc1sc(NNc2nc(O)cs2)nc1O	5.27 µM
COC(=O)C1C(COc2ccccc2)=NC(=O)NC1c1ccc2ccccc2c1 (stereo not given)	13.8 µM
COc1ccc(/C=C/C(=O)Oc2cccc(C=NNC(=O)c3cccc(F)c3)c2)cc1 [[3-[[(3-fluorobenzoyl)hydrazinylidene]methyl]phenyl] (E)-3-(4-methoxyphenyl)prop-2-enoate]	12.8 µM
O=C1Nc2ccc([N+](=O)[O-])cc2/C1=N/NC(=O)c1cc(-c2ccccc2Cl)nc2ccccc12 [2-(2-chlorophenyl)-N'-(2-keto-5-nitro-indol-3-yl)cinchoninohydrazide]	0.711 µM
Cc1ccc(OCC(=O)N/N=C/c2ccc(O)c([N+](=O)[O-])c2)c([N+](=O)[O-])c1 [SMR000312577]	8.42 µM
O=C(NN=C/C=C/c1ccccc1)c1cc2c(ccc3ccccc32)o1 [N-[[(E)-3-phenylprop-2-enylidene]amino]-2-benzo[e]benzofurancarboxamide]	1.72 µM

SMILES	IC50
Cc1ccc(C(=O)NN=C/C=C/c2ccc(Br)cc2)cn1 [MLS000723380]	24.1 µM
COc1ccc(CN=Nc2ncc(Br)cn2)c(OC)c1 [MLS000856301]	19.6 µM
O=C(N/N=C/C1C=C(Cl)C=C([N+](=O)[O-])C1=O)c1cc(-c2ccccn2)nc2ccccc12 (stereo not given) [MLS000773704]	1.85 µM
Cc1ccc2c(c1)=C(NNC(=O)c1ccc(NS(=O)(=O)c3cccs3)cc1)C(=O)N=2 [N-[4-[[(5-methyl-2-oxoindol-3-yl)amino]carbamoyl]phenyl]thiophene-2-sulfonamide]	11.5 µM
Cc1cc(=O)n(-c2ccc(Cl)c(C(=O)O)c2)[nH]1 [2-Chloro-5-(3-methyl-5-oxo-4,5-dihydro-pyrazol-1-yl)-benzoic acid]	8.96 µM
O=NCc1cc(Br)ccc1OCC(=O)O [2-[4-bromanyl-2-(hydroxyiminomethyl)phenoxy]ethanoic acid]	8.03 µM
O=C(O)CCC(N=Nc1ccc(S(=O)(=O)N2CCCC2)cc1[N+](=O)[O-])c1cccs1 (stereo not given) [4-[(2-nitro-4-pyrrolidin-1-ylsulfonyl-phenyl)hydrazinylidene]-4-thiophen-2-yl-butanoic acid]	15.5 µM
C=CCC1C=C(/C=C/c2nc(O)c([N+](=O)[O-])c(=O)[nH]2)C=C(OC)C1=O (stereo not given) [MLS000716350]	19.3 µM
O=C1C=CC(/C=C/c2nc(O)c([N+](=O)[O-])c(=O)[nH]2)C=C1O (stereo not given) [SMR000524347]	36.1 µM
Cc1nnc(NS(=O)(=O)c2ccc(/N=N/c3ccc(N)nc3N)cc2)s1	11.5 µM
COc1cccc(N/C(C)=[N+](\C)CCNS(=O)(=O)c2ccc(Cl)cc2)c1 [SMR000672481]	3.46 µM
C[N+](C)(C)CCNC(=O)C1=C/C(=C\N=O)N(Cc2ccccc2)C=C1	7.56 µM
O=C(CSc1nc(O)cc(=O)[nH]1)Nc1ccccc1[N+](=O)[O-] [SMR000620617]	4.04 µM
CCCCCn1cc(O)c(-c2nc(-c3ccc(Cl)cc3)cs2)c1N [5-azanyl-4-[4-(4-chlorophenyl)-1,3-thiazol-2-yl]-1-pentyl-2H-pyrrol-3-one]	5.38 µM
N#CC1=c2sc(=Cc3ccco3)c(=O)n2C(=N)C(C#N)C1c1ccco1 (stereo not given) [5-amino-7-(furan-2-yl)-2-(furan-2-ylmethylidene)-3-oxo-7H-[1,3]thiazolo[3,2-a]pyridine-6,8-dicarbonitrile]	3.44 µM
Cc1ccccc1NC(=O)CN1C(=O)/C(=N\NC(=O)c2ccccc2O)c2ccccc21 [2-{3-[(2-Hydroxy-benzoyl)-hydrazono]-2-oxo-2,3-dihydro-indol-1-yl}-N-o-tolyl-acetamide]	1.23 µM
C=c1[nH]c(=Cc2ccc(CNC(=O)C(=O)Nc3ccccc3)o2)c(O)c1C(=O)OCC [(5E)-5-[[5-[[(2-anilino-1,2-dioxoethyl)amino]methyl]-2-furanyl]methylidene]-2-methyl-4-oxo-1H-pyrrole-3-carboxylic acid ethyl ester]	8.55 µM
Cc1cc(C)n2c(SCC(=O)C(C#N)c3nc4ccccc4[nH]3)nnc2n1 (stereo not given) [2-(1,3-dihydrobenzimidazol-2-ylidene)-4-[(5,7-dimethyl-[1,2,4]triazolo[4,3-a]pyrimidin-3-yl)sulfanyl]-3-oxidanylidene-butanenitrile]	5.01 µM
CC=CC=CC(=O)C1C(=O)[C@]2(C)C(=O)C(C)(O)[C@H]1[C@H]([C@]1(C)OC(=O)C(C)C1=O)[C@H]2C(=O)C=CC=CC (stereo partly drawn) [(1S,4R,6E,7S,8R)-8-[(2E,4E)-hexa-2,4-dienoyl]-2-hydroxy-7-[(2S)-5-hydroxy-2,4-dimethyl-3-oxofuran-2-yl]-6-[(2E,4E)-1-hydroxyhexa-2,4-dienylidene]-2,4-dimethylbicyclo[2.2.2]octane-3,5-dione]	5.92 µM
C=CC1=C(C(=O)O)N2C(=O)[C@@H](NC(=O)C(N=O)c3csc(N)n3)[C@H]2SC1 (stereo partly drawn) [(6R,7R)-7-[[2-(2-azanyl-1,3-thiazol-4-yl)-2-hydroxyimino-ethanoyl]amino]-3-ethenyl-8-oxidanylidene-5-thia-1-azabicyclo[4.2.0]oct-2-ene-2-carboxylic acid]	4.48 µM
O=C(NN=C/C(Cl)=C/c1ccccc1)c1ccc2c(c1)OCO2 [SMR001240783]	8.6 µM
CON=C(C(=O)N[C@@H]1C(=O)N2C(C(=O)O)=C(COC(N)=O)CS[C@H]12)c1ccco1	2.09 µM
C[N+]1=C(CC=Nc2ccccc2Cl)C(C)(C)c2ccccc21 [SMR000173746]	5.96 µM
CCOc1cc(CN=Nc2nc(O)c(CC(=O)O)s2)ccc1OCc1ccccc1Cl	4.28 µM
Cc1cccc(NC(=O)CN2C(=O)/C(=N\NC(=O)c3ccccc3O)c3ccccc32)c1 [MLS000548432]	1.99 µM
COc1ccccc1NC(=O)CN1C(=O)/C(=N\NC(=O)c2ccccc2O)c2ccccc21 [2-hydroxy-N-[(Z)-[1-[2-(2-methoxyanilino)-2-oxoethyl]-2-oxo-3-indolylidene]amino]benzamide]	2.74 µM
Cc1ccc(-c2csc(-n3[nH]c(C)c(N=Nc4ccccc4O)c3=O)n2)cc1	3.69 µM
